tested on: Human immunodeficiency virus; test: In vitro antiviral activity against human immuno deficiency virus was determined; type: functional, organism-based; conditions: Human immunodeficiency virus 1

Row | Structure (SMILES) | IC50 [nM]
1 | CC(C)(C)NC(=O)[C@@H]1CCCCN1C[C@@H](O)[C@H](Cc1ccccc1)NC(=O)[C@H](CC(N)=O)NC(=O)c1ccc2ccccc2n1 | 17
2 | CC(C)(C)NC(=O)[C@@H]1CCCC[C@@H]1C[C@@H](O)[C@H](Cc1ccccc1)NC(=O)[C@H](CC(N)=O)NC(=O)OCc1ccccc1 | 1000
3 | CC(C)(C)NC(=O)[C@@H]1CCCC[C@H]1C[C@@H](O)[C@H](Cc1ccccc1)NC(=O)[C@H](CC(N)=O)NC(=O)c1ccc2ccccc2n1 | 4
4 | CC(C)(C)NC(=O)[C@@H]1CCCCN1C[C@@H](O)[C@H](Cc1ccccc1)NC(=O)[C@H](CC(N)=O)NC(=O)OCc1ccccc1 | 300
5 | CC(C)(C)NC(=O)[C@@H]1CCCC[C@H]1C[C@@H](O)[C@H](Cc1ccccc1)NC(=O)[C@H](CC(N)=O)NC(=O)OCc1ccccc1 (mixture of isomers) | 40
6 | CC(C)(C)NC(=O)[C@@H]1C[C@@H]2CCCCC2CN1C[C@@H](O)[C@H](Cc1ccccc1)NC(=O)[C@H](CC(N)=O)NC(=O)c1ccc2ccccc2n1 (single isomer, unassigned) | 2

biological target: Human immunodeficiency virus type 1 protease (Human immunodeficiency virus 1, UniProt Q72874); test: Inhibitory activity against HIV-1 Protease was determined; conditions: not given

Row | Structure (SMILES) | IC50 [nM]
7 | CC(C)(C)NC(=O)[C@@H]1CCCCN1C[C@@H](O)[C@H](Cc1ccccc1)NC(=O)[C@H](CC(N)=O)NC(=O)c1ccc2ccccc2n1 | 2
